Tested on: MV-4-11 cells
Assay: Gene expression microarray analysis (Affymetrix PrimeView) and GSEA
Assay type: cell-based, human
Parameters: RFU PODN (11730768_x_at) / Fold change /veh PODN (11730768_x_at) / RFU LINC00158 (11744669_a_at) / Fold change /veh LINC00158 (11744669_a_at) / RFU DUSP10 (11751237_a_at) / Fold change /veh DUSP10 (11751237_a_at) / RFU ID3 (11757404_x_at) / Fold change /veh ID3 (11757404_x_at) / RFU PLEKHG5 (11737974_s_at) / Fold change /veh PLEKHG5 (11737974_s_at) / RFU LRRC4B (11730491_at) / Fold change /veh LRRC4B (11730491_at) / RFU GIMAP4 (11747438_a_at) / Fold change /veh GIMAP4 (11747438_a_at) / RFU KRT8 (11758183_x_at) / Fold change /veh KRT8 (11758183_x_at) / RFU CNN1 (11734310_a_at) / Fold change /veh CNN1 (11734310_a_at) / RFU VPS37D (11726825_at) / Fold change /veh VPS37D (11726825_at) / RFU C10orf10 (11716522_x_at) / Fold change /veh C10orf10 (11716522_x_at) / RFU KIR2DL2 /// KIR2DL4 /// KIR2DL5A /// KIR2DL5B /// KIR2DS1 /// KIR2DS2 /// KIR2DS3 /// KIR2DS4 /// KIR3DL3 /// KIR3DL3 /// KIR3DS1 (11738374_at) / Fold change /veh KIR2DL2 /// KIR2DL4 /// KIR2DL5A /// KIR2DL5B /// KIR2DS1 /// KIR2DS2 /// KIR2DS3 /// KIR2DS4 /// KIR3DL3 /// KIR3DL3 /// KIR3DS1 (11738374_at) / RFU C1QL1 (11718748_at) / Fold change /veh C1QL1 (11718748_at) / RFU TMPRSS4 (11747572_a_at) / Fold change /veh TMPRSS4 (11747572_a_at) / RFU HAMP (11756126_x_at) / Fold change /veh HAMP (11756126_x_at) / RFU RNFT2 (11725882_a_at) / Fold change /veh RNFT2 (11725882_a_at) / RFU NR4A2 (11747474_a_at) / Fold change /veh NR4A2 (11747474_a_at) / RFU ABCC12 (11746883_a_at) / Fold change /veh ABCC12 (11746883_a_at) / RFU TMEM136 (11760407_x_at) / Fold change /veh TMEM136 (11760407_x_at) / RFU CLDN22 /// WWC2 (11732394_at) / Fold change /veh CLDN22 /// WWC2 (11732394_at) / RFU HLA-DPB1 (11760878_x_at) / Fold change /veh HLA-DPB1 (11760878_x_at) / RFU SPINT1 (11716480_a_at) / Fold change /veh SPINT1 (11716480_a_at) / RFU GAP43 (11754022_s_at) / Fold change /veh GAP43 (11754022_s_at) / RFU A4GNT (11735810_at) / Fold change /veh A4GNT (11735810_at) / RFU PRB3 (11715151_x_at) / Fold change /veh PRB3 (11715151_x_at) / RFU TUBB4B (11761932_at) / Fold change /veh TUBB4B (11761932_at) / RFU CAPN14 (11732068_a_at) / Fold change /veh CAPN14 (11732068_a_at) / RFU TMCC2 (11721928_a_at) / Fold change /veh TMCC2 (11721928_a_at) / RFU IRGQ (11745062_a_at) / Fold change /veh IRGQ (11745062_a_at) / RFU FAM174B (11720279_a_at) / Fold change /veh FAM174B (11720279_a_at) / RFU TMPRSS4 (11748680_a_at) / Fold change /veh TMPRSS4 (11748680_a_at) / RFU FAM212B (11763350_a_at) / Fold change /veh FAM212B (11763350_a_at) / RFU PLEKHG5 (11743358_a_at) / Fold change /veh PLEKHG5 (11743358_a_at) / RFU ZSCAN30 (11745921_a_at) / Fold change /veh ZSCAN30 (11745921_a_at) / RFU CMKLR1 (11741424_a_at) / Fold change /veh CMKLR1 (11741424_a_at) / RFU LOC101060620 /// MAPK8IP1 (11723275_at) / Fold change /veh LOC101060620 /// MAPK8IP1 (11723275_at) / RFU SPTSSB (11747773_x_at) / Fold change /veh SPTSSB (11747773_x_at) / RFU PRSS12 (11739890_at) / Fold change /veh PRSS12 (11739890_at) / RFU BIN1 (11741810_x_at) / Fold change /veh BIN1 (11741810_x_at) / RFU WNT11 (11732464_a_at) / Fold change /veh WNT11 (11732464_a_at) / RFU C10orf10 (11716521_a_at) / Fold change /veh C10orf10 (11716521_a_at) / RFU C5orf56 (11738089_at) / Fold change /veh C5orf56 (11738089_at) / RFU CYB561 (11721691_x_at) / Fold change /veh CYB561 (11721691_x_at) / RFU ANKRD19P (11752326_a_at) / Fold change /veh ANKRD19P (11752326_a_at) / RFU OR2T12 /// OR2T33 /// OR2T8 (11738714_s_at) / Fold change /veh OR2T12 /// OR2T33 /// OR2T8 (11738714_s_at) / RFU VCAN (11748164_a_at) / Fold change /veh VCAN (11748164_a_at) / RFU JSRP1 (11732532_at) / Fold change /veh JSRP1 (11732532_at) / RFU KRTAP10-11 (11738290_x_at) / Fold change /veh KRTAP10-11 (11738290_x_at) / RFU MYO3A (11730013_a_at) / Fold change /veh MYO3A (11730013_a_at) / RFU EBF3 (11725865_a_at) / Fold change /veh EBF3 (11725865_a_at) / RFU CAMK2N1 (11719241_x_at) / Fold change /veh CAMK2N1 (11719241_x_at) / RFU C5orf56 (11738088_a_at) / Fold change /veh C5orf56 (11738088_a_at) / RFU OLFML3 (11715873_a_at) / Fold change /veh OLFML3 (11715873_a_at) / RFU LOC100653217 /// NTM (11731650_a_at) / Fold change /veh LOC100653217 /// NTM (11731650_a_at) / RFU MAPK11 (11762145_a_at) / Fold change /veh MAPK11 (11762145_a_at) / RFU FIZ1 (11724087_x_at) / Fold change /veh FIZ1 (11724087_x_at) / RFU OASL (11726364_x_at) / Fold change /veh OASL (11726364_x_at) / RFU SOX15 (11748057_x_at) / Fold change /veh SOX15 (11748057_x_at) / RFU CD79A (11719716_a_at) / Fold change /veh CD79A (11719716_a_at) / RFU HIST1H1D (11736915_at) / Fold change /veh HIST1H1D (11736915_at) / RFU CASKIN2 (11723855_a_at) / Fold change /veh CASKIN2 (11723855_a_at) / RFU LOC730098 (11760151_x_at) / Fold change /veh LOC730098 (11760151_x_at) / RFU OR4N2 (11742367_at) / Fold change /veh OR4N2 (11742367_at) / RFU PRRT2 (11749266_a_at) / Fold change /veh PRRT2 (11749266_a_at) / RFU SNX32 (11753110_a_at) / Fold change /veh SNX32 (11753110_a_at) / RFU CDHR5 (11726645_a_at) / Fold change /veh CDHR5 (11726645_a_at) / RFU RCAN1 (11760418_a_at) / Fold change /veh RCAN1 (11760418_a_at) / RFU FAM167A (11723789_a_at) / Fold change /veh FAM167A (11723789_a_at) / RFU FAM26E (11764081_at) / Fold change /veh FAM26E (11764081_at) / RFU ISYNA1 (11749810_s_at) / Fold change /veh ISYNA1 (11749810_s_at) / RFU ACY1 (11761880_at) / Fold change /veh ACY1 (11761880_at) / RFU 11764098_at / Fold change /veh 11764098_at / RFU SAMD14 (11745864_x_at) / Fold change /veh SAMD14 (11745864_x_at) / RFU NPB (11741838_a_at) / Fold change /veh NPB (11741838_a_at) / RFU TMPRSS6 (11731388_a_at) / Fold change /veh TMPRSS6 (11731388_a_at) / RFU KRTAP10-2 (11738614_at) / Fold change /veh KRTAP10-2 (11738614_at) / RFU ARHGAP8 /// PRR5-ARHGAP8 (11727945_x_at) / Fold change /veh ARHGAP8 /// PRR5-ARHGAP8 (11727945_x_at) / RFU KRTAP5-7 /// NADSYN1 (11734609_at) / Fold change /veh KRTAP5-7 /// NADSYN1 (11734609_at) / RFU RASL12 (11751679_a_at) / Fold change /veh RASL12 (11751679_a_at) / RFU CDKN2B (11736163_a_at) / Fold change /veh CDKN2B (11736163_a_at) / RFU PRF1 (11729649_at) / Fold change /veh PRF1 (11729649_at) / RFU, ZNF638 /// ZNF638-IT1 / Fold change vs veh, ZNF638 /// ZNF638-IT1 / RFU, PANK3 / Fold change vs veh, PANK3 / RFU, SH3YL1 / Fold change vs veh, SH3YL1 / RFU, ZEB2 / Fold change vs veh, ZEB2 / RFU, NRIP1 / Fold change vs veh, NRIP1 / RFU, PTTG1IP / Fold change vs veh, PTTG1IP / RFU, CAPN2 / Fold change vs veh, CAPN2 / RFU, MED14 / Fold change vs veh, MED14 / RFU, SNORA58 / Fold change vs veh, SNORA58 / RFU, C1orf63 / Fold change vs veh, C1orf63 / RFU, LRRFIP1 / Fold change vs veh, LRRFIP1 / RFU, NDUFAF7 / Fold change vs veh, NDUFAF7 / RFU, SLC12A2 / Fold change vs veh, SLC12A2 / RFU, IBTK / Fold change vs veh, IBTK / RFU, ESF1 / Fold change vs veh, ESF1 / Fold change vs veh, TMEM50B / RFU, TAOK1 / Fold change vs veh, TAOK1 / RFU, ACBD3 / Fold change vs veh, ACBD3 / RFU, TMA16 / Fold change vs veh, TMA16 / RFU, RWDD3 / Fold change vs veh, RWDD3 / RFU, BCAT1 / Fold change vs veh, BCAT1 / RFU, EDEM3 / Fold change vs veh, EDEM3 / RFU, TMEM33 / Fold change vs veh, TMEM33 / RFU, WDR75 / Fold change vs veh, WDR75 / RFU, AHCTF1 / Fold change vs veh, AHCTF1 / RFU, TFRC / Fold change vs veh, TFRC / RFU, ZDHHC17 / Fold change vs veh, ZDHHC17 / RFU, NOM1 / Fold change vs veh, NOM1 / RFU, ARL8B / Fold change vs veh, ARL8B / RFU, ZBTB11 / Fold change vs veh, ZBTB11 / RFU, TAMM41 / Fold change vs veh, TAMM41 / RFU, KIAA1704 /// LOC100996395 / Fold change vs veh, KIAA1704 /// LOC100996395 / RFU, ING1 / Fold change vs veh, ING1 / RFU, TRMT61B / Fold change vs veh, TRMT61B / RFU, FUBP3 / Fold change vs veh, FUBP3 / RFU, TP53 / Fold change vs veh, TP53 / RFU, TNKS2 / Fold change vs veh, TNKS2 / RFU, ZFP14 / Fold change vs veh, ZFP14 / RFU, ACTR2 / Fold change vs veh, ACTR2 / RFU, PPP3R1 / Fold change vs veh, PPP3R1 / RFU, PIK3R1 / Fold change vs veh, PIK3R1 / RFU, HNRNPA1 / Fold change vs veh, HNRNPA1 / RFU, RNF170 / Fold change vs veh, RNF170 / RFU, ZNF28 / Fold change vs veh, ZNF28 / RFU, RNGTT / Fold change vs veh, RNGTT / RFU, OGT / Fold change vs veh, OGT / RFU, BRD1 / Fold change vs veh, BRD1 / RFU, MARS / Fold change vs veh, MARS / RFU, ZNF655 / Fold change vs veh, ZNF655 / RFU, FAHD1 / Fold change vs veh, FAHD1 / RFU, BDP1 / Fold change vs veh, BDP1 / RFU, LRRCC1 / Fold change vs veh, LRRCC1 / RFU, ARID1A / Fold change vs veh, ARID1A / RFU, ZNF146 / Fold change vs veh, ZNF146 / RFU, ZNF330 / Fold change vs veh, ZNF330 / RFU, GPN3 / Fold change vs veh, GPN3 / RFU, C9orf123 / Fold change vs veh, C9orf123 / RFU, N4BP2L2 / Fold change vs veh, N4BP2L2 / RFU, ARFIP1 / Fold change vs veh, ARFIP1 / RFU, FAM179B / Fold change vs veh, FAM179B / RFU, BCL10 / Fold change vs veh, BCL10 / RFU, UHRF1BP1L / Fold change vs veh, UHRF1BP1L / RFU, BET1 / Fold change vs veh, BET1 / RFU, CNOT2 / Fold change vs veh, CNOT2 / RFU, ZNF268 / Fold change vs veh, ZNF268 / Fold change vs veh, ZNF507 / RFU, DGCR2 / Fold change vs veh, DGCR2 / RFU, WDSUB1 / Fold change vs veh, WDSUB1 / Fold change vs veh, HSP90B1 /// MIR3652 / RFU, ADSS / Fold change vs veh, ADSS / RFU, GK / Fold change vs veh, GK / RFU, ZNF148 / Fold change vs veh, ZNF148 / RFU, TAF9 / Fold change vs veh, TAF9 / RFU, SLC1A5 / Fold change vs veh, SLC1A5 / RFU, SLMO2 / Fold change vs veh, SLMO2 / RFU, ABCC4 / Fold change vs veh, ABCC4 / RFU, LOC101060439 /// RAP1B / Fold change vs veh, LOC101060439 /// RAP1B / RFU, RFX7 / Fold change vs veh, RFX7 / RFU, GTPBP10 / Fold change vs veh, GTPBP10 / RFU, CNEP1R1 / Fold change vs veh, CNEP1R1 / RFU, BIVM-ERCC5 /// ERCC5 / Fold change vs veh, BIVM-ERCC5 /// ERCC5 / RFU, ILF3 / Fold change vs veh, ILF3 / RFU 11762660_at / Fold change /veh 11762660_at / RFU VCAN (11757783_s_at) / Fold change /veh VCAN (11757783_s_at) / RFU DDX43 (11728927_at) / Fold change /veh DDX43 (11728927_at) / RFU KRT8 (11758188_x_at) / Fold change /veh KRT8 (11758188_x_at) / RFU NKD1 (11759106_at) / Fold change /veh NKD1 (11759106_at) / RFU SRD5A1 (11742802_a_at) / Fold change /veh SRD5A1 (11742802_a_at) / RFU TPSAB1 /// TPSB2 (11721975_s_at) / Fold change /veh TPSAB1 /// TPSB2 (11721975_s_at) / RFU GSTM3 (11746129_a_at) / Fold change /veh GSTM3 (11746129_a_at) / RFU IL23R (11737362_x_at) / Fold change /veh IL23R (11737362_x_at) / RFU TMEM51 (11727254_a_at) / Fold change /veh TMEM51 (11727254_a_at) / RFU PIWIL2 (11732686_x_at) / Fold change /veh PIWIL2 (11732686_x_at) / RFU ORM1 (11744905_x_at) / Fold change /veh ORM1 (11744905_x_at) / RFU CCDC152 (11743942_at) / Fold change /veh CCDC152 (11743942_at) / RFU ECM1 (11717891_a_at) / Fold change /veh ECM1 (11717891_a_at) / RFU IL23R (11748794_a_at) / Fold change /veh IL23R (11748794_a_at) / RFU TNFAIP8L3 (11732012_x_at) / Fold change /veh TNFAIP8L3 (11732012_x_at) / RFU MBOAT4 (11741988_at) / Fold change /veh MBOAT4 (11741988_at) / RFU 11764193_at / Fold change /veh 11764193_at / RFU TMEM53 (11763286_at) / Fold change /veh TMEM53 (11763286_at) / RFU MAGEB2 (11727129_at) / Fold change /veh MAGEB2 (11727129_at) / RFU TMEM200A (11744735_a_at) / Fold change /veh TMEM200A (11744735_a_at) / RFU CCDC152 (11751479_a_at) / Fold change /veh CCDC152 (11751479_a_at) / RFU FAM211A (11726209_a_at) / Fold change /veh FAM211A (11726209_a_at) / RFU RGS16 (11746705_a_at) / Fold change /veh RGS16 (11746705_a_at) / RFU VCAN (11755009_s_at) / Fold change /veh VCAN (11755009_s_at) / RFU RHOB (11743442_s_at) / Fold change /veh RHOB (11743442_s_at) / RFU RGS16 (11720943_a_at) / Fold change /veh RGS16 (11720943_a_at) / RFU RGS16 (11720944_at) / Fold change /veh RGS16 (11720944_at) / RFU, VPS4B / Fold change vs veh, VPS4B / RFU, CREB1 / Fold change vs veh, CREB1 / RFU, DNAJC13 / Fold change vs veh, DNAJC13 / RFU, GNAQ / Fold change vs veh, GNAQ / RFU, CDK5R1 / Fold change vs veh, CDK5R1 / RFU, ZRANB3 / Fold change vs veh, ZRANB3 / RFU, CUL4A / Fold change vs veh, CUL4A / RFU, CCNY / Fold change vs veh, CCNY / RFU, UFL1 / Fold change vs veh, UFL1 / RFU, COG3 / Fold change vs veh, COG3 / RFU, DIAPH2 / Fold change vs veh, DIAPH2 / RFU, SKA2 / Fold change vs veh, SKA2 / RFU, AFF3 / Fold change vs veh, AFF3 / RFU, LMF1 / Fold change vs veh, LMF1 / RFU, IPO11 / Fold change vs veh, IPO11 / RFU, DFFB / Fold change vs veh, DFFB / RFU, FOXP1 / Fold change vs veh, FOXP1 / RFU, CARD8 / Fold change vs veh, CARD8 / RFU, STRN3 / Fold change vs veh, STRN3 / RFU, ADK / Fold change vs veh, ADK / RFU, RASSF2 / Fold change vs veh, RASSF2 / RFU, WIPF1 / Fold change vs veh, WIPF1 / RFU, LARP1B / Fold change vs veh, LARP1B / RFU, RASA1 / Fold change vs veh, RASA1 / RFU, RB1 / Fold change vs veh, RB1 / RFU, PPFIA1 / Fold change vs veh, PPFIA1 / RFU, MAT2A / Fold change vs veh, MAT2A / RFU, CCT5 / Fold change vs veh, CCT5 / RFU, WDR92 / Fold change vs veh, WDR92 / RFU, CUX1 / Fold change vs veh, CUX1 / RFU, TTC7A / Fold change vs veh, TTC7A / RFU, TMEM135 / Fold change vs veh, TMEM135 / RFU, DEPTOR / Fold change vs veh, DEPTOR / RFU, CPM / Fold change vs veh, CPM / RFU, DNAJB6 / Fold change vs veh, DNAJB6 / RFU, CACNA2D3 / Fold change vs veh, CACNA2D3 / RFU, DTX4 / Fold change vs veh, DTX4 / RFU, TFCP2 / Fold change vs veh, TFCP2 / RFU, GMCL1 /// GMCL1P1 / Fold change vs veh, GMCL1 /// GMCL1P1 / RFU, AEBP2 / Fold change vs veh, AEBP2 / RFU, SNHG1 /// SNORD22 /// SNORD25 /// SNORD26 /// SNORD27 /// SNORD28 /// SNORD29 /// SNORD31 / Fold change vs veh, SNHG1 /// SNORD22 /// SNORD25 /// SNORD26 /// SNORD27 /// SNORD28 /// SNORD29 /// SNORD31 / Fold change (Aza/veh), C12orf56 (ProbeSet 11735607_a_at) / Fold change (ACY-1035/veh), C12orf56 (ProbeSet 11735607_a_at) / Fold change (Aza/veh), FGFR1OP (ProbeSet 11751329_s_at) / Fold change (ACY-1035/veh), FGFR1OP (ProbeSet 11751329_s_at) / Fold change (Aza/veh), VPS36 (ProbeSet 11739960_a_at) / Fold change (ACY-1035/veh), VPS36 (ProbeSet 11739960_a_at) / RFU SYPL1 (11715823_x_at) / Fold change /veh SYPL1 (11715823_x_at) / RFU IGFBP7 (11715501_s_at) / Fold change /veh IGFBP7 (11715501_s_at) / RFU REEP3 (11722064_at) / Fold change /veh REEP3 (11722064_at) / RFU IGLL1 (11728026_x_at) / Fold change /veh IGLL1 (11728026_x_at): dose or concentration left out as unconfirmed
Settings: MV-4-11 cells, 48 hours

Structure (SMILES): Nc1ncn([C@@H]2O[C@H](CO)[C@@H](O)[C@H]2O)c(=O)n1 [azacitidine]
- RFU ANKRD19P (11752326_a_at): 6.34 RFU

Source: paper PMC5218480 (PLoS ONE, 2017)
